For data set [1] the following is noted: cited from earlier work.
Data set [2] relates to human monocyte cell line THP-1. Kind of data set: Boyden chamber assay, human monocyte migration in response to a CCL2 (MCP-1) gradient. Type of data set: cell-based. Conditions: dose dependent, FIG. 1 (Losartan), FIG. 3 (Ondansetron). As to the method: The Boyden chamber assay is based on a chamber of two medium-filled compartments separated by a microporous membrane. In general, cells are placed in the upper compartment and are allowed to migrate through the pores of the membrane into the lower compartment, in which chemotactic agents are present. After an appropriate incubation time, the membrane between the two compartments is fixed and stained, and the number of cells that have migrated to the lower side of the membrane is determined. Experiments using this assay were performed as described in Mitchell et al. (2012) Int. Immunopharmacol. 15: 357-363 to assess the migration of monocytes. […] A Boyden chamber assay was performed (as described in Mitchell et al. (2012) Int. Immunopharmacol, supra) to assess the migration of human monocytes (i.e., the human monocyte cell line THP-1) in response to a CCL2 (MCP-1) gradient and to assess the ability of Ondansetron to inhibit monocyte migration in vitro.

In another data set the test system is dog monocytes. Kind of data set: Boyden chamber assay, dog monocyte migration in response to a CCL2 (MCP-1) gradient. Type of data set: cell-based. Here is the method:
The Boyden chamber assay is based on a chamber of two medium-filled compartments separated by a microporous membrane. In general, cells are placed in the upper compartment and are allowed to migrate through the pores of the membrane into the lower compartment, in which chemotactic agents are present. After an appropriate incubation time, the membrane between the two compartments is fixed and stained, and the number of cells that have migrated to the lower side of the membrane is determined. Experiments using this assay were performed as described in Mitchell et al. (2012) Int. Immunopharmacol. 15: 357-363 to assess the migration of monocytes.

A further data set has as its system inflammatory monocytes. Kind of data set: Footpad inflammation-induced monocyte migration assay (flow cytometry of draining popliteal lymph nodes). It counts as in vivo. Conditions: mice, 24 h after vaccination, vs vaccine only. As to the method: Footpad inflammation-induced monocyte migration assays were performed as previously described (Mitchell et al. (2012), J. Immunology 189: 5612-5621) to determine whether Ondansetron inhibits monocyte migration in vivo in mice. Briefly, two groups of mice (n=4 per group) were injected with 50 μl of liposomal vaccine adjuvant in one footpad. The first group of mice was treated by injection of 3 mg/kg Ondansetron administered IP at the time of footpad injection and the Ondansetron injections were repeated 12, 24, and 36 hours following footpad injection. […] The third group received neither the vaccine nor the Ondansetron. Inflammatory monocyte migration to the draining popliteal lymph nodes was assessed in all three groups of mice via flow cytometry (as described in Mitchell et al. (2012), J. Immunology, supra) 24 hours following vaccination.
Briefly, two groups of mice (n=4 per group) were vaccinated in the right rear footpad. […] Inflammatory monocyte migration to the draining popliteal lymph nodes was assessed in all three groups of mice via flow cytometry (as described in Mitchell et al. (2012), J. Immunology, supra) 24 hours following vaccination.
For orientation: A flow cytometer gives signals particle by particle.

The next data set relates to monocytes. Kind of data set: Boyden chamber assay on blood samples of Losartan-treated dogs. Type of data set: in vivo.
The test system of the next data set is ovalbumin. Kind of data set: Anti-ovalbumin antibody titers after ovalbumin vaccination (humoral immunity). Type of data set: in vivo. Conditions: mice, boost at day 10, vs vaccine only. Here is the method:
Briefly, two groups of mice (n=5) were vaccinated with 5 μg of ovalbumin. […] The second group of mice received no additional treatment following vaccination. Second vaccinations were repeated 10 days following the initial vaccinations.
To assess the effects of Ondansetron on humoral immunity, mice were treated with Ondansetron at the time of vaccination. Briefly, two groups of mice (n=4 per group) were vaccinated subcutaneously with 1 μg of ovalbumin in a liposomal adjuvant. The first group of mice received 3 mg/kg Ondansetron via i.p. injection at the time of vaccination, and at 12, 24, and 36 hours following vaccination. The second group of mice received no additional treatment following vaccination. A third group of mice received neither the vaccine nor the Ondansetron. Second vaccinations were repeated for the first two groups of mice 10 days following the initial vaccinations, and second Ondansetron treatments were repeated for the groups as described for the first cycle of vaccination.

Another data set deals with spleen cells. Kind of data set: IFNγ secretion of spleen cells in response to ovalbumin restimulation (cellular immunity). Type of data set: in vivo. As to conditions: vaccinated mice treated concurrently with Losartan; restimulated in vitro 72 hours with 5 μg/ml ovalbumin; vs vaccine only; p<0.05 (FIG. 11). Here is the method:
Two groups of mice were immunized as noted in Example 7 above. To determine whether cellular immunity was enhanced in the Losartan-treated mice, mice from both the first and second groups were euthanized, and their spleen cells were assayed to determine IFNγ secretion levels in response to ovalbumin restimulation. Splenectomies and restimulation assays for cellular immune responses were performed as previously described (Mitchell et al. (2012), J. Immunology, supra). Spleen cells were restimulated in vitro for 72 hours with 5 μg/ml ovalbumin protein.

A further data set deals with A20-HA tumors. Nature of the data set: A20 mouse B-cell lymphoma model, tumor vaccine responses. It counts as in vivo, mice. Here is the method: The A20 mouse B-cell lymphoma model was used to assess the effects of Ondansetron on tumor vaccine responses. Briefly, two groups of mice (n=5 per group) with established d3 A20-HA tumors (i.e., tumors expressing HA) were vaccinated weekly for 3 weeks with HA antigen (1 μg per mouse in liposome adjuvant), either without or with concurrently administered ondansetron (3 mg/kg i.p., administered 4 times at 12 h intervals). A third group of mice received neither the HA nor the Ondansetron. Tumor measurements were made using calipers every 2-3 days. Mice were sacrificed when their tumors reached a diameter of 1.5 cm.
Labeled anti-CD11b antibodies were used to quantitate the numbers of infiltrating CD11b+ monocyte/macrophages in the tumor tissues.

[3] abbreviates: Table 2, Comparison of ARB Pharmacokinetics.

Like-named read-outs stand apart in the source and are kept apart here.

Regarding `CCOc1nc2cccc(C(=O)O)c2n1Cc1ccc(-c2ccccc2-c2nnn[nH]2)cc1` [Candesartan], in data set [1] (setting [3]), the Bioavailability is recorded as 15% and the “Biological Half-Life” value is listed as 9 hours.

As to `CCCCC1=NC2(CCCC2)C(=O)N1Cc1ccc(-c2ccccc2-c2nnn[nH]2)cc1` [Irbesartan], the “Biological Half-Life” value in data set [1] (setting [3]) is listed as 11-15 hours.

For the molecule `CCCCc1nc(Cl)c(CO)n1Cc1ccc(-c2ccccc2-c2nn[nH]n2)cc1` [Losartan], in data set [2], the “human monocyte migration (THP-1) in vitro” value is recorded as “potently blocked human monocyte migration (THP-1) in vitro in a dose dependent manner”. Besides, in the data set with dog monocytes (CCL2 (MCP-1) gradient, dose dependent, FIG. 2), the “canine monocyte migration in vitro” value was “potently blocked canine monocyte migration in vitro in a dose dependent manner”. Moreover, the “canine monocyte migration in the presence of MCP-1” value in the data set with dog monocytes (concentrations of 1 μg/ml and 10 μg/ml) was “blocked canine monocyte migration even in the presence of MCP-1”. The “migration of inflammatory monocytes to the draining lymph nodes” value with inflammatory monocytes (30 mg/kg Losartan at injection and 12 h after, p<0.05 (FIG. 6)) is reported as “significantly reduced”. Besides, the “monocyte migration in blood samples after treatment” value is recorded as “Monocyte migration was inhibited” with monocytes (3 dogs with cancer, 2 mg/kg/day for two weeks, pooled data, FIG. 8) and “significantly inhibited” in the data set on monocytes (healthy dogs, 2 mg/kg/day for 48 hours, vs before treatment, FIG. 7). For the same molecule, the anti-ovalbumin antibody titers entry in the data set with ovalbumin (5 μg ovalbumin, 30 mg/kg Losartan at vaccination and 12, 24, 36 h after, p<0.05 (FIG. 9)) was “significantly higher anti-ovalbumin antibody titers”. In addition, the “IFNγ production by spleen cells” value in the data set on spleen cells was “produced significantly more IFNγ”.

For `CCCc1nc(C(C)(C)O)c(C(=O)O)n1Cc1ccc(-c2ccccc2-c2nnn[nH]2)cc1` [Olmesartan], in data set [1] (setting [3]), the Bioavailability is listed as 29% and the “Biological Half-Life” value is 14-16 hours.

Turning to `Cc1nccn1CC1CCc2c(c3ccccc3n2C)C1=O` (centres unmarked) [Ondansetron], in data set [2], the “human monocyte migration (THP-1) in vitro” value is given as “potently blocked THP-1 monocyte migration in vitro in a dose dependent manner”. Besides, in the data set with inflammatory monocytes (3 mg/kg Ondansetron IP at footpad injection and 12, 24, 36 h after, p<0.001 (FIG. 4, 5)), the “migration of inflammatory monocytes to the draining lymph nodes” value is reported as “significantly reduced”. For the same molecule, the anti-ovalbumin antibody titers entry in the data set with ovalbumin (1 μg ovalbumin s.c. in liposomal adjuvant, 3 mg/kg Ondansetron i.p. at vaccination and 12, 24, 36 h after, p<0.05 (FIG. 10)) was “significantly higher anti-ovalbumin antibody titers”. Moreover, the “infiltrating CD11b+ monocyte/macrophages in tumor tissues” value with A20-HA tumors (immunohistochemistry, vaccine with Ondansetron vs vaccine alone, FIG. 13) was “markedly fewer monocyte/macrophages”. Also, in the data set with A20-HA tumors (mice with A20-HA tumors, HA vaccine weekly for 3 weeks with ondansetron 3 mg/kg i.p. 4 times at 12 h intervals, vs vaccine only, FIG. 12), the tumor growth rates result is given as “significantly reduced”. Further, the Biological Half-Life result in data set [1] (text b221) is reported as “about 3.9 hours”.

Regarding `CCCc1nc2c(C)cc(-c3nc4ccccc4n3C)cc2n1Cc1ccc(-c2ccccc2C(=O)O)cc1` [Telmisartan], in data set [1] (setting [3]), the Bioavailability is on record as 42-58%.

These data come from patent US8975290B2, “Methods and compositions for enhancing an immune response, blocking monocyte migration, amplifying vaccine immunity and inhibiting tumor growth and metastasis” (Colorado State University Research Foundation, priority 2013, dated 2015).
